Results as given in US20090093469A1, “Phenylaminopropanol Derivatives and Methods of Their Use” (WYETH, priority 2004, published 2009).
Counter-ions that a name gives are not always drawn.

molecular target: T1, hNET (Homo sapiens, UniProt P23975); test: Norepinephrine (NE) uptake assay in MDCK-Net6 cells stably transfected with human hNET; format: cell-based; details: MDCK-Net6, read-out: % Inhibition @ 1 μM (hNET)
T1 construct: expressed in transfected cells
Experimental: Cells were plated at 300,000/T75 flask and cells were split twice weekly. […] Cells were plated at 250,000 cells/T75 flask and split twice weekly.
On day 1, cells were plated at 3,000 cells/well in growth medium and maintained in a cell incubator (37° C., 5% CO2). On day 2, growth medium was replaced with 200 μl of assay buffer (25 mM HEPES; 120 mM NaCl; 5 mM KCl; 2.5 mM CaCl2; 1.2 mM MgSO4; 2 mg/ml glucose (pH 7.4, 37° C.)) containing 0.2 mg/ml ascorbic acid and 10 μM pargyline. Plates containing cells with 200 μl of assay buffer were equilibrated for 10 minutes at 37° C. prior to addition of compounds. A stock solution of desipramine was prepared in DMSO (10 mM) and delivered to triplicate wells containing cells for a final test concentration of 1 μM. Data from these wells were used to define non-specific NE uptake (minimum NE uptake). Test compounds were prepared in DMSO (10 mM) and diluted in assay buffer according to test range (1 to 10,000 nM). Twenty-five microliters of assay buffer (maximum NE uptake) or test compound were added directly to triplicate wells containing cells in 200 μl of assay buffer. The cells in assay buffer with test compounds were incubated for 20 minutes at 37° C. To initiate the NE uptake, [^3H]NE diluted in assay buffer (120 nM final assay concentration) was delivered in 25 μl aliquots to each well and the plates were incubated for 5 minutes (37° C.). The reaction was terminated by decanting the supernatant from the plate. The plates containing cells were washed twice with 200 μl assay buffer (37° C.) to remove free radioligand. The plates were then inverted, left to dry for 2 minutes, then reinverted and air-dried for an additional 10 minutes. The cells were lysed in 25 μl of 0.25 N NaOH solution (4° C.), placed on a shake table and vigorously shaken for 5 minutes. After cell lysis, 75 μl of scintillation cocktail was added to each well and the plates were sealed with film tape. The plates were returned to the shake table and vigorously shaken for a minimum of 10 minutes to ensure adequate partitioning of organic and aqueous solutions. The plates were counted in a Wallac Microbeta counter (PerkinElmer) to collect the raw cpm data.
For each experiment, a data stream of cpm values collected from the Wallac Microbeta counter was downloaded to a Microsoft Excel statistical application program. Calculations of EC50 values were made using the transformed-both-sides logistic dose response program written by Wyeth Biometrics Department.

T1 sequence (P23975 whole entry): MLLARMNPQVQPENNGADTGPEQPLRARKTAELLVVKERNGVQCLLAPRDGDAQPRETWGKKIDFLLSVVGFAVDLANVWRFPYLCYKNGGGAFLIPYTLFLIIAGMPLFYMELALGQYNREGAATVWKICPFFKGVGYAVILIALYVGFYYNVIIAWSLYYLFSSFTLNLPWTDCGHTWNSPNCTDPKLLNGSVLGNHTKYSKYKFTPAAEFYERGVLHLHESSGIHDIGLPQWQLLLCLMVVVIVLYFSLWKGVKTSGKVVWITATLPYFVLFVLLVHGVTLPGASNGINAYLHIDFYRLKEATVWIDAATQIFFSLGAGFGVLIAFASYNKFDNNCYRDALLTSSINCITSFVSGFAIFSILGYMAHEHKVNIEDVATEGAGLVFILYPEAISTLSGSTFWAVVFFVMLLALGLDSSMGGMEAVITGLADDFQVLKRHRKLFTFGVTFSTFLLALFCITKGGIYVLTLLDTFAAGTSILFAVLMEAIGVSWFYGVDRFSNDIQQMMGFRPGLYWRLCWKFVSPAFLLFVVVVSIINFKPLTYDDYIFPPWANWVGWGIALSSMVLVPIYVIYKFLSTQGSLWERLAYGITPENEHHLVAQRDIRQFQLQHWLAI

SMILES	inhibition at 1 µM [%]
CNC[C@@H](O)[C@H](c1ccccc1C)n1ccc2ccccc21 (single isomer, unassigned) [Example 53, hydrochloride]	57.4
CNC[C@@H](O)[C@H](c1cccc(Cl)c1)n1ccc2ccccc21 [Example 33, (1S,2R)-1-(3-chlorophenyl)-1-(1H-indol-1-yl)-3-(methylamino)propan-2-ol hydrochloride]	99.4
CNC[C@@H](O)[C@H](c1ccc(C)cc1)n1ccc2ccccc21 [Example 59, (1S,2R)-1-(1H-indol-1-yl)-3-(methylamino)-1-(4-methylphenyl)propan-2-ol hydrochloride]	93.2
CNC[C@@H](O)[C@H](c1cccc(C)c1)n1ccc2ccccc21 [Example 52, (1S,2R)-1-(1H-indol-1-yl)-3-(methylamino)-1-(3-methylphenyl)propan-2-ol hydrochloride]	94.3
CNC[C@@H](O)[C@H](c1ccccc1)n1c(=O)n(C(C)C)c2ccccc21 [Example 203, 1-[(1S,2R)-2-hydroxy-3-(methylamino)-1-phenylpropyl]-3-isopropyl-1,3-dihydro-2H-benzimidazol-2-one hydrochloride]	98.9

same assay, conditions: hydrochloride, 1 µM

SMILES	% Inhibition @ 1 μM (hNET) [%]
CNC[C@@H](O)[C@@H](c1ccccc1)n1ccc2ccccc21 [Example 29, (1R,2R)-1-(1H-indol-1-yl)-3-(methylamino)-1-phenylpropan-2-ol hydrochloride]	89.5

same assay, conditions: test compound 1 μM; [3H]NE uptake, MDCK-Net6 cells; read-out: % Inhibition @ 1 μM (hNET)

inhibition at 1 µM [%]	SMILES
97.1	CNC[C@@H](O)[C@H](c1ccccc1)n1ccc2c(Cl)cccc21 [Example 146, (1S,2R)-1-(4-chloro-1H-indol-1-yl)-3-(methylamino)-1-phenylpropan-2-ol hydrochloride]
94.9	CNC[C@@H](O)[C@H](c1ccccc1)n1ccc2c(C)cccc21 [Example 94, (1S,2R)-3-(methylamino)-1-(4-methyl-1H-indol-1-yl)-1-phenylpropan-2-ol hydrochloride]
8.5	O[C@@H](CN1CCCCC1)[C@@H](c1ccccc1)n1ccc2cc(Cl)ccc21 (racemic) [Example 15, (1RS,2SR)-1-(5-chloro-1H-indol-1-yl)-1-phenyl-3-piperidin-1-ylpropan-2-ol hydrochloride]
96.3	CNC[C@@H](O)[C@H](c1ccccc1)n1cc(C)c2cc(Cl)ccc21 [Example 119, (1S,2R)-1-(5-chloro-3-methyl-1H-indol-1-yl)-3-(methylamino)-1-phenylpropan-2-ol hydrochloride]
37.5	CCN(C)C[C@H](O)[C@@H](c1ccccc1)n1ccc2ccccc21 (racemic) [Example 25, (1RS,2SR)-3-[ethyl(methyl)amino]-1-(1H-indol-1-yl)-1-phenylpropan-2-ol hydrochloride]
52.7	CNC[C@@H](O)[C@H](c1cccc(F)c1)n1ccc2ccncc21 [Example 86, (1S,2R)-3-methylamino-1-(3-fluorophenyl)-1-(1H-pyrrolo[2,3-c]pyridin-1-yl) propan-2-ol dihydrochloride]
71.6	CNC[C@@H](O)[C@H](c1ccccc1)n1ccc2cc(C(F)(F)F)ccc21 [Example 188, (1S,2R)-3-(methylamino)-1-phenyl-1-[5-(trifluoromethyl)-1H-indol-1-yl]propan-2-ol hydrochloride]
96.3	CNC[C@@H](O)[C@H](c1cccc(F)c1)N1C(=O)C(C)(C)c2ccccc21 [Example 210, 1-[(1S,2R)-1-(3-fluorophenyl)-2-hydroxy-3-(methylamino)propyl]-3,3-dimethyl-1,3-dihydro-2H-indol-2-one hydrochloride]
99.4	CNC[C@@H](O)[C@H](c1ccccc1)N1C(=O)C2(CCCCC2)c2ccccc21 [Example 104, 1′-[(1S,2R)-2-hydroxy-3-(methylamino)-1-phenylpropyl]spiro[cyclo-hexane-1,3′-indol]-2′(1′H)-one hydrochloride]
